Measured values published in patent US12214092B2, “Systems and methods for treating biological fluids” (Cerus Corporation, priority 2017, dated 2025).

Key:
E. coli = experiment: Amotosalen and two sequential UV light doses (UVC + UVA) treatment of E. coli in plasma, colony forming unit assay; format: cell-based; details: 15 μM amotosalen, titer pre-UV 6.57; for Titer Post-Second: ~3 J/cm^2 each
Protocol: Additionally, any two or more wavelengths of narrow bandwidth light are evaluated in combination, such as for example, photochemical treatment of a biological fluid using amotosalen and ultraviolet light of a first peak wavelength and ultraviolet light of a second peak wavelength, sequentially or concurrently. More specifically, in one example pathogen inactivation of E. coli (Gram negative) and S. epidermidis (Gram positive) bacteria was evaluated using amotosalen and the device with LEDs of wavelengths described in Example 8. […] The spiked plasma units were divided into control (no amotosalen+UV light) and treatment (with amotosalen) conditions, with amotosalen used at 15 μM concentration. The units were aliquoted into six-well plates (5 mL/well) for illumination. Pre-illumination samples were taken and control bacterial titers determined using standard colony forming unit assay. […] Data for pre-illumination titers, post-first illumination titer, post-second illumination titer, and post-treatment (after second illumination) residual amotosalen (S-59) are shown in the following Tables 40-41.

platelets = experiment: Platelet quality, platelets in 35% plasma/65% PAS III, amotosalen 30-110 μM, 340 nm device ~7.2 J/cm^2; format: cell-based

Cc1oc2c(C)c3oc(=O)cc(C)c3cc2c1COCCN [S-59, 3-(2-aminoethoxymethyl)-2,5,9-trimethylfuro[3,2-g]chromen-7-one]
Titer Post-Second (E. coli; UV 1 265 nm then UV 2 325 nm): <−0.11 | Titer Post-Second (E. coli; UV 1 265 nm then UV 2 340 nm): <−0.11 | Titer Post-Second (E. coli; UV 1 265 nm then UV 2 365 nm): <−0.11 | Titer Post-First (E. coli; UV 1 265 nm ~3 J/cm^2 (then 325 nm)): 3.58 | Titer Post-First (E. coli; UV 1 265 nm ~3 J/cm^2 (then 340 nm)): 3.86 | Titer Post-First (E. coli; UV 1 265 nm ~3 J/cm^2 (then 365 nm)): 2.95 | Titer Post-Second (E. coli; UV 1 280 nm then UV 2 325 nm): <−0.11 | Titer Post-Second (E. coli; UV 1 280 nm then UV 2 340 nm): <−0.11 | Titer Post-Second (E. coli; UV 1 280 nm then UV 2 365 nm): <−0.11 | Titer Post-First (E. coli; UV 1 280 nm ~3 J/cm^2 (then 325 nm)): 3.66 | Titer Post-First (E. coli; UV 1 280 nm ~3 J/cm^2 (then 340 nm)): 4.15 | Titer Post-First (E. coli; UV 1 280 nm ~3 J/cm^2 (then 365 nm)): 4.11 | Titer Post-Second (E. coli; UV 1 325 nm then UV 2 265 nm): <−0.11 | Titer Post-Second (E. coli; UV 1 325 nm then UV 2 280 nm): <−0.11 | Titer Post-First (E. coli; UV 1 325 nm ~3 J/cm^2 (then 265 nm)): <−0.11 | Titer Post-First (E. coli; UV 1 325 nm ~3 J/cm^2 (then 280 nm)): <−0.11 | Titer Post-Second (E. coli; UV 1 340 nm then UV 2 265 nm): <−0.11 | Titer Post-Second (E. coli; UV 1 340 nm then UV 2 280 nm): <−0.11 | Titer Post-First (E. coli; UV 1 340 nm ~3 J/cm^2 (then 265 nm)): <−0.11 | Titer Post-First (E. coli; UV 1 340 nm ~3 J/cm^2 (then 280 nm)): <−0.11 | Titer Post-Second (E. coli; UV 1 365 nm then UV 2 265 nm): <−0.11 | Titer Post-Second (E. coli; UV 1 365 nm then UV 2 280 nm): <−0.11 | Titer Post-First (E. coli; UV 1 365 nm ~3 J/cm^2 (then 265 nm)): <−0.11 | Titer Post-First (E. coli; UV 1 365 nm ~3 J/cm^2 (then 280 nm)): <−0.11 | Glucose (platelets; 30 μM, D4): 3.27 mmol/L | LDH (platelets; 30 μM, D4): 7.44 LDH IU/10^11 platelets | Lactate (platelets; 30 μM, D4): 7.1 mmol/L | Platelet counts (platelets; 30 μM, D4): 1385 x10^3 cells/μL | Platelet lysis (platelets; 30 μM, D4): 2.86% | pCO2 at 37° C. (platelets; 30 μM, D4): 26.7 mm Hg | pH at 22° C. (platelets; 30 μM, D4): 7.11 | pH at 37° C. (platelets; 30 μM, D4): 6.88 | pO2 at 37° C. (platelets; 30 μM, D4): 28.9 mm Hg | Glucose (platelets; 30 μM, D7): 0.16 mmol/L | LDH (platelets; 30 μM, D7): 8.26 LDH IU/10^11 platelets | Lactate (platelets; 30 μM, D7): 15.38 mmol/L | Platelet counts (platelets; 30 μM, D7): 1392 x10^3 cells/μL | Platelet lysis (platelets; 30 μM, D7): 3.17% | pCO2 at 37° C. (platelets; 30 μM, D7): 23.6 mm Hg | pH at 22° C. (platelets; 30 μM, D7): 7.08 | pH at 37° C. (platelets; 30 μM, D7): 6.86 | pO2 at 37° C. (platelets; 30 μM, D7): 57.3 mm Hg | Glucose (platelets; 30 μM, Post-UV): 5.45 mmol/L | LDH (platelets; 30 μM, Post-UV): 7.80 LDH IU/10^11 platelets | Lactate (platelets; 30 μM, Post-UV): 8.21 mmol/L | Platelet counts (platelets; 30 μM, Post-UV): 1308 x10^3 cells/μL | Platelet lysis (platelets; 30 μM, Post-UV): 2.85% | pCO2 at 37° C. (platelets; 30 μM, Post-UV): 34.9 mm Hg | pH at 22° C. (platelets; 30 μM, Post-UV): 7.07 | pH at 37° C. (platelets; 30 μM, Post-UV): 6.84 | pO2 at 37° C. (platelets; 30 μM, Post-UV): 11.6 mm Hg | Glucose (platelets; 30 μM, Pre-UV): 5.2 mmol/L | LDH (platelets; 30 μM, Pre-UV): 7.13 LDH IU/10^11 platelets | Lactate (platelets; 30 μM, Pre-UV): 8.6 mmol/L | Platelet counts (platelets; 30 μM, Pre-UV): 1346 x10^3 cells/μL | Platelet lysis (platelets; 30 μM, Pre-UV): 2.46% | pCO2 at 37° C. (platelets; 30 μM, Pre-UV): 35.0 mm Hg | pH at 22° C. (platelets; 30 μM, Pre-UV): 7.07 | pH at 37° C. (platelets; 30 μM, Pre-UV): 6.85 | pO2 at 37° C. (platelets; 30 μM, Pre-UV): 4.8 mm Hg | Glucose (platelets; 60 μM, D4): 2.92 mmol/L | LDH (platelets; 60 μM, D4): 8.12 LDH IU/10^11 platelets | Lactate (platelets; 60 μM, D4): 10.11 mmol/L | Platelet counts (platelets; 60 μM, D4): 1379 x10^3 cells/μL | Platelet lysis (platelets; 60 μM, D4): 3.10% | pCO2 at 37° C. (platelets; 60 μM, D4): 26.6 mm Hg | pH at 22° C. (platelets; 60 μM, D4): 7.11 | pH at 37° C. (platelets; 60 μM, D4): 6.88 | pO2 at 37° C. (platelets; 60 μM, D4): 28.8 mm Hg | Glucose (platelets; 60 μM, D7): 0 mmol/L | LDH (platelets; 60 μM, D7): 8.48 LDH IU/10^11 platelets | Lactate (platelets; 60 μM, D7): 15.16 mmol/L | Platelet counts (platelets; 60 μM, D7): 1403 x10^3 cells/μL | Platelet lysis (platelets; 60 μM, D7): 3.37% | pCO2 at 37° C. (platelets; 60 μM, D7): 23.1 mm Hg | pH at 22° C. (platelets; 60 μM, D7): 7.08 | pH at 37° C. (platelets; 60 μM, D7): 6.86 | pO2 at 37° C. (platelets; 60 μM, D7): 61.0 mm Hg | Glucose (platelets; 60 μM, Post-UV): 5.04 mmol/L | LDH (platelets; 60 μM, Post-UV): 7.53 LDH IU/10^11 platelets | Lactate (platelets; 60 μM, Post-UV): 6.93 mmol/L | Platelet counts (platelets; 60 μM, Post-UV): 1249 x10^3 cells/μL | Platelet lysis (platelets; 60 μM, Post-UV): 2.65% | pCO2 at 37° C. (platelets; 60 μM, Post-UV): 35.1 mm Hg | pH at 22° C. (platelets; 60 μM, Post-UV): 7.06 | pH at 37° C. (platelets; 60 μM, Post-UV): 6.83 | pO2 at 37° C. (platelets; 60 μM, Post-UV): 8.0 mm Hg | Glucose (platelets; 60 μM, Pre-UV): 5.16 mmol/L | LDH (platelets; 60 μM, Pre-UV): 7.66 LDH IU/10^11 platelets | Lactate (platelets; 60 μM, Pre-UV): 6.72 mmol/L | Platelet counts (platelets; 60 μM, Pre-UV): 1344 x10^3 cells/μL | Platelet lysis (platelets; 60 μM, Pre-UV): 2.68% | pCO2 at 37° C. (platelets; 60 μM, Pre-UV): 33.7 mm Hg | pH at 22° C. (platelets; 60 μM, Pre-UV): 7.08 | pH at 37° C. (platelets; 60 μM, Pre-UV): 6.85 | pO2 at 37° C. (platelets; 60 μM, Pre-UV): 29.4 mm Hg | Glucose (platelets; 90 μM, D4): 2.97 mmol/L | Lactate (platelets; 90 μM, D4): 9.83 mmol/L | Platelet counts (platelets; 90 μM, D4): 1373 x10^3 cells/μL | Platelet lysis (platelets; 90 μM, D4): 3.23% | pCO2 at 37° C. (platelets; 90 μM, D4): 26.9 mm Hg | pH at 22° C. (platelets; 90 μM, D4): 7.10 | pH at 37° C. (platelets; 90 μM, D4): 6.87 | pO2 at 37° C. (platelets; 90 μM, D4): 25.7 mm Hg | Glucose (platelets; 90 μM, D7): 0 mmol/L | LDH (platelets; 90 μM, D7): 8.67 LDH IU/10^11 platelets | Lactate (platelets; 90 μM, D7): 14.62 mmol/L | Platelet counts (platelets; 90 μM, D7): 1384 x10^3 cells/μL | Platelet lysis (platelets; 90 μM, D7): 3.53% | pCO2 at 37° C. (platelets; 90 μM, D7): 22.6 mm Hg | pH at 22° C. (platelets; 90 μM, D7): 7.10 | pH at 37° C. (platelets; 90 μM, D7): 6.87 | pO2 at 37° C. (platelets; 90 μM, D7): 61.8 mm Hg | Glucose (platelets; 90 μM, Post-UV): 4.95 mmol/L | Lactate (platelets; 90 μM, Post-UV): 7.11 mmol/L | Platelet counts (platelets; 90 μM, Post-UV): 1313 x10^3 cells/μL | Platelet lysis (platelets; 90 μM, Post-UV): 2.64% | pCO2 at 37° C. (platelets; 90 μM, Post-UV): 33.7 mm Hg | pH at 22° C. (platelets; 90 μM, Post-UV): 7.06 | pH at 37° C. (platelets; 90 μM, Post-UV): 6.83 | pO2 at 37° C. (platelets; 90 μM, Post-UV): 29.3 mm Hg | Glucose (platelets; 90 μM, Pre-UV): 4.9 mmol/L | Lactate (platelets; 90 μM, Pre-UV): 6.95 mmol/L | Platelet counts (platelets; 90 μM, Pre-UV): 1344 x10^3 cells/μL | Platelet lysis (platelets; 90 μM, Pre-UV): 2.76% | pCO2 at 37° C. (platelets; 90 μM, Pre-UV): 34.9 mm Hg | pH at 22° C. (platelets; 90 μM, Pre-UV): 7.06 | pH at 37° C. (platelets; 90 μM, Pre-UV): 6.84 | pO2 at 37° C. (platelets; 90 μM, Pre-UV): 9.0 mm Hg | Platelet counts (platelets; 110 μM, D4): 0 x10^3 cells/μL | Platelet counts (platelets; 110 μM, D7): 0 x10^3 cells/μL | Glucose (platelets; 110 μM, Post-UV): 4.88 mmol/L | LDH (platelets; 110 μM, Post-UV): 6.97 LDH IU/10^11 platelets | Lactate (platelets; 110 μM, Post-UV): 7.18 mmol/L | Platelet counts (platelets; 110 μM, Post-UV): 1335 x10^3 cells/μL | Platelet lysis (platelets; 110 μM, Post-UV): 2.72% | pCO2 at 37° C. (platelets; 110 μM, Post-UV): 34.2 mm Hg | pH at 22° C. (platelets; 110 μM, Post-UV): 7.05 | pH at 37° C. (platelets; 110 μM, Post-UV): 6.83 | pO2 at 37° C. (platelets; 110 μM, Post-UV): 16.1 mm Hg | Glucose (platelets; 110 μM, Pre-UV): 4.95 mmol/L | LDH (platelets; 110 μM, Pre-UV): 7.42 LDH IU/10^11 platelets | Lactate (platelets; 110 μM, Pre-UV): 6.85 mmol/L | Platelet counts (platelets; 110 μM, Pre-UV): 1308 x10^3 cells/μL | Platelet lysis (platelets; 110 μM, Pre-UV): 2.65% | pCO2 at 37° C. (platelets; 110 μM, Pre-UV): 33.7 mm Hg | pH at 22° C. (platelets; 110 μM, Pre-UV): 7.07 | pH at 37° C. (platelets; 110 μM, Pre-UV): 6.84 | pO2 at 37° C. (platelets; 110 μM, Pre-UV): 6.3 mm Hg
